Source: US7759373B2, “Large conductance calcium-activated K channel opener” (Mitsubishi Tanabe Pharma Corporation, priority 2001, dated 2010)
Structures can show the parent of a compound that is named as a salt.

test system: isolated rabbit urinary bladder; experiment: Relaxation effect on potassium-induced contraction of isolated rabbit urinary bladder; format: cell-based; details: Oryctolagus cuniculus; 50% relaxation concentration; high-K+ (30 mM) pre-contracted rabbit bladder strips; relaxation as percentage of the maximum produced by 0.1 mM papaverine; read-out: EC50 value range
Summary of the method: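 Mucosa-free longitudinal bladder strips from male NZW rabbits, held at 37 °C in Krebs solution gassed with 95% O2/5% CO2, were precontracted with 30 mM K+. Compounds were added cumulatively (10^−8–10^−4 M), with isometric relaxation expressed relative to 0.1 mM papaverine maximum. EC50 was derived and reported as rank ranges.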

| SMILES | EC50 [nM] |
| --- | --- |
| CCc1nc(-c2csc(Cl)c2)[nH]c1-c1cccnc1 [Preparation example 55] | 1000 to 3000 |
| CCc1nc(-c2ccc(Cl)cc2)[nH]c1-c1cccnc1 [Preparation example 56] | 500 to 1000 |
| CCc1nc(-c2ccc(F)cc2)[nH]c1-c1cncs1 [Preparation example 86] | 500 to 1000 |
| CCCc1nc(-c2ccc(F)cc2)[nH]c1-c1cccc(F)c1 [Preparation example 99] | 500 to 1000 |
| CN(C)c1[nH]c(-c2ccc(F)cc2)nc1-c1ccccc1.Cl [Preparation example 108, 5-dimethylamino-2-(4-fluorophenyl)-4-phenylimidazole hydrochloride] | 1000 to 3000 |
| CSCc1nc(-c2ccc(C#N)cc2)[nH]c1-c1ccccc1 [Preparation example 132] | 500 to 1000 |
| C[S+]([O-])Cc1[nH]c(-c2ccc(F)cc2)nc1-c1ccccc1 (stereo not drawn) [Preparation example 639] | 1000 to 3000 |

Further lines, results first:

| EC50 [nM] | SMILES |
| --- | --- |
| 1000 to 3000 | CCCc1nc(-c2ccc(F)cc2)[nH]c1-c1ccc(F)cc1 [Preparation example 87] |
| 1000 to 3000 | CCCc1nc(-c2ccc(F)cc2)[nH]c1-c1ccccc1 [Preparation example 88] |
| 1000 to 3000 | CCCc1nc(-c2ccc(F)cc2)[nH]c1-c1ccc(N(C)C)cc1 [Preparation example 90] |
| 500 to 1000 | CCc1c(-c2cccnc2)nc(-c2ccc(F)cc2)n1CC [Preparation example 104] |
| 500 to 1000 | C[S+]([O-])Cc1nc(-c2cccc(F)c2)[nH]c1-c1ccccc1 (stereo not drawn) [Preparation example 136] |

test system: not given; experiment: not given; details: not given

| SMILES | melting point |
| --- | --- |
| CCc1[nH]c(-c2ccc(C)nc2)nc1-c1cccnc1.Cl.Cl.Cl | 270 to 273 °C (dec.) |
| CCCc1nc(-c2ccc(NC)cc2)[nH]c1-c1cccs1 (as salt: HCl) [Preparation example 3] | 175 to 180 °C |
| CCCc1nc(-c2cncc(C)c2)[nH]c1-c1cccs1 (as salt: HCl) [Preparation example 7] | 183 to 185 °C |
| CCCc1nc(-c2ccc(C#N)cc2)[nH]c1-c1cccs1 (as salt: HCl) [Preparation example 8] | 251 to 254 °C |
| CCCc1nc(-c2ccc([N+](=O)[O-])cc2)[nH]c1-c1cccs1 (as salt: HCl) [Preparation example 9] | 278 to 281 °C |
| CCc1nc(-c2ccccc2Cl)[nH]c1-c1cccnc1 (as salt: HCl) [Preparation example 12] | 221 to 223 °C |
| CCc1nc(-c2cccc(Cl)c2)[nH]c1-c1cccnc1 (as salt: HCl) [Preparation example 13] | 223 to 224 °C |
| CCc1nc(-c2csc(Br)c2)[nH]c1-c1cccnc1 (as salt: HCl) [Preparation example 19] | 214 to 216 °C |
| N#Cc1ccc(-c2ncc(-c3cccnc3)[nH]2)cc1 (as salt: HCl) [Preparation example 23] | 325 to 328 °C |
| Cc1ccc(-c2ncc(-c3cccnc3)[nH]2)cn1 (as salt: HCl) [Preparation example 26] | 269 to 273 °C |
| CCCc1nc(-c2cccc(Cl)c2)[nH]c1-c1ccccc1 (as salt: HCl) [Preparation example 29] | 202 to 204 °C |
| CCCc1nc(-c2csc(Cl)c2)[nH]c1-c1ccccc1 (as salt: HCl) [Preparation example 34] | 194 to 196 °C |
| CCCc1nc(-c2ccc[nH]2)[nH]c1-c1ccccc1 (as salt: HCl) [Preparation example 35] | 220 to 222 °C |
| CCCc1nc(-c2ccccc2[N+](=O)[O-])[nH]c1-c1ccccc1 (as salt: HCl) [Preparation example 39] | 233 to 236 °C |
| CCCc1nc(-c2cc(Cl)cs2)[nH]c1-c1ccccc1 (as salt: HCl) [Preparation example 40] | 188 to 190 °C |
| Fc1cccc(-c2ncc(-c3ccccc3)[nH]2)c1 (as salt: HCl) [Preparation example 41] | 250 to 255 °C |
| CCc1nc(-c2ccc(F)cc2)[nH]c1-c1cscn1 (as salt: HCl) [Preparation example 52] | 267 to 269 °C |
| CCc1nc(-c2csc(Cl)c2)[nH]c1-c1cccnc1 (as salt: HCl) [Preparation example 55] | 205 to 207 °C |
| CCCc1nc(-c2ccc(F)cc2)[nH]c1Br (as salt: HCl) [Preparation example 79] | 178 to 180 °C |
| CCc1nc(-c2ccc(C)nc2)[nH]c1-c1cncs1 (as salt: HCl) [Preparation example 83] | 247 to 251 °C |
| CCc1nc(-c2ccc(F)cc2)[nH]c1-c1ccccc1OC (as salt: HCl) [Preparation example 84] | 200 to 203 °C (dec.) |
| CCc1nc(-c2ccc(F)cc2)[nH]c1-c1cncnc1 (as salt: HCl) [Preparation example 85] | 287 to 289 °C |
| CCCc1nc(-c2ccc(F)cc2)[nH]c1-c1ccc(F)cc1 (as salt: HCl) [Preparation example 87] | 233 to 235 °C |
| CCCc1nc(-c2ccc(F)cc2)[nH]c1-c1ccc([N+](=O)[O-])cc1 (as salt: HCl) [Preparation example 91] | 220 to 222 °C |
| CCCc1nc(-c2ccc(F)cc2)[nH]c1-c1cc(Cl)ccc1O (as salt: HCl) [Preparation example 92] | 262 to 264 °C |

Other lines, results leading:

| melting point | SMILES |
| --- | --- |
| 234 to 238 °C (dec.) | Cl.O=C(O)Cc1nc(-c2ccc(Cl)s2)oc1-c1cccnc1 |
| 170 to 172 °C | CCCc1nc(-c2ccc(N(C)C)cc2)[nH]c1-c1cccs1 (as salt: HCl) [Preparation example 2] |
| 234 to 237 °C | CCCc1nc(C2CCC(=O)N2)[nH]c1-c1cccs1 (stereo not drawn) (as salt: HCl) [Preparation example 4] |
| 275 to 280 °C | CCCc1nc(-c2ccncc2)[nH]c1-c1cccs1 (as salt: HCl) [Preparation example 6] |
| 250 to 253 °C | CCc1nc(-c2ccccc2C(N)=O)[nH]c1-c1cccnc1 (as salt: HCl) [Preparation example 18] |
| 215 to 217 °C | CCc1nc(-c2cccs2)[nH]c1-c1cccnc1 (as salt: HCl) [Preparation example 20] |
| 192 to 195 °C | Fc1ccc(-c2ncc(-c3cccnc3)[nH]2)cc1 (as salt: HCl) [Preparation example 22] |
| 285 to 288 °C | CCc1nc(-c2ccc(C#N)cc2)[nH]c1-c1ccccc1 (as salt: HCl) [Preparation example 27] |
| 248 to 251 °C | CCc1nc(-c2ccc(C)nc2)[nH]c1-c1ccccc1 (as salt: HCl) [Preparation example 28] |
| 192 to 193 °C | CCCc1nc(-c2cccc(F)c2)[nH]c1-c1ccccc1 (as salt: HCl) [Preparation example 30] |
| 258 to 260 °C | CCCc1nc(-c2ccc(C#N)cc2)[nH]c1-c1ccccc1 (as salt: HCl) [Preparation example 31] |
| 189 to 190 °C | CCCc1nc(-c2ccc3ccccc3c2)[nH]c1-c1ccccc1 (as salt: HCl) [Preparation example 32] |
| 215 to 217 °C | CCCc1nc(-c2ccsc2)[nH]c1-c1ccccc1 (as salt: HCl) [Preparation example 33] |
| 185 to 188 °C | CCCc1nc(-c2cc3ccccc3o2)[nH]c1-c1ccccc1 (as salt: HCl) [Preparation example 38] |
| > 300 °C | N#Cc1ccc(-c2ncc(-c3ccccc3)[nH]2)cc1 (as salt: HCl) [Preparation example 42] |
| 260 to 262 °C | CCc1nc(-c2ccc(F)cc2)[nH]c1-c1ccc(C)nc1 (as salt: HCl) [Preparation example 47] |
| 241 to 243 °C | CCc1nc(-c2ccc(F)cc2)[nH]c1-c1cnccn1 (as salt: HCl) [Preparation example 49] |
| 190 to 192 °C | CCc1nc(-c2ccc(F)cc2)[nH]c1-c1ncccn1 (as salt: HCl) [Preparation example 50] |
| 215 to 218 °C | CCc1nc(-c2ccc(F)cc2)[nH]c1-c1nccs1 (as salt: HCl) [Preparation example 51] |
| 198 to 201 °C | Cc1nc(-c2csc(Cl)c2)[nH]c1-c1cccnc1 (as salt: HCl) [Preparation example 54] |
| 254 to 256 °C | CCc1nc(-c2ccc(F)cc2)[nH]c1-c1cncs1 (as salt: HCl) [Preparation example 86] |
| 224 to 226 °C | CCCc1nc(-c2ccc(F)cc2)[nH]c1-c1ccccc1 (as salt: HCl) [Preparation example 88] |
| 174 to 176 °C | CCCc1nc(-c2ccc(F)cc2)[nH]c1-c1ccc(SC)cc1 (as salt: HCl) [Preparation example 89] |

test system: rhythmic bladder contractions induced by substance P; experiment: Inhibitory effect on the rhythmic bladder contractions induced by substance P in anesthetized rats; format: in vivo, rat; details: time during which frequency of rhythmic contraction was completely inhibited, 0.25 mg/kg of the compound, substance P infusion
Summary of the method: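 Urethane-anesthetized female Sprague-Dawley rats with rhythmic bladder contractions driven by i.v. substance P (0.33 μg/kg/min). Compound given i.v. in saline/0.5% Tween 80 once contractions stable 15 min; intravesical pressure monitored, duration of 100% inhibition ranked A ≥20, B ≥10, C <10 min.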

| SMILES | 100% inhibition time range |
| --- | --- |
| CCc1nc(-c2csc(Cl)c2)[nH]c1-c1cccnc1 [Preparation example 55] | B (A≧20>B≧10>C (minute)) |
| CCc1nc(-c2ccc(Cl)cc2)[nH]c1-c1cccnc1 [Preparation example 56] | B (A≧20>B≧10>C (minute)) |
| CCc1nc(-c2ccc(F)cc2)[nH]c1-c1cncs1 [Preparation example 86] | B (A≧20>B≧10>C (minute)) |
| CCCc1nc(-c2ccc(F)cc2)[nH]c1-c1ccc(F)cc1 [Preparation example 87] | B (A≧20>B≧10>C (minute)) |
| CCCc1nc(-c2ccc(F)cc2)[nH]c1-c1ccccc1 [Preparation example 88] | B (A≧20>B≧10>C (minute)) |
| CCCc1nc(-c2ccc(F)cc2)[nH]c1-c1ccc(N(C)C)cc1 [Preparation example 90] | B (A≧20>B≧10>C (minute)) |
| CCCc1nc(-c2ccc(F)cc2)[nH]c1-c1cccc(F)c1 [Preparation example 99] | B (A≧20>B≧10>C (minute)) |
| CCc1c(-c2cccnc2)nc(-c2ccc(F)cc2)n1CC [Preparation example 104] | A (A≧20>B≧10>C (minute)) |
| CN(C)c1[nH]c(-c2ccc(F)cc2)nc1-c1ccccc1.Cl [Preparation example 108, 5-dimethylamino-2-(4-fluorophenyl)-4-phenylimidazole hydrochloride] | B (A≧20>B≧10>C (minute)) |
| CSCc1nc(-c2ccc(C#N)cc2)[nH]c1-c1ccccc1 [Preparation example 132] | B (A≧20>B≧10>C (minute)) |
| C[S+]([O-])Cc1nc(-c2cccc(F)c2)[nH]c1-c1ccccc1 (stereo not drawn) [Preparation example 136] | C (A≧20>B≧10>C (minute)) |
| C[S+]([O-])Cc1[nH]c(-c2ccc(F)cc2)nc1-c1ccccc1 (stereo not drawn) [Preparation example 639] | C (A≧20>B≧10>C (minute)) |
